# Measured values taken from patent US10894788B2, “Inhibitors of cyclin-dependent kinases” (Kinnate Biopharma Inc., priority 2018, dated 2021).
# Read-outs that look alike come from different tables or passages of the source.
# Target: CDK12 wt/CycK (Homo sapiens (Human), UniProt Q9NYV4)
# Assay: Radiometric protein kinase assay (33PanQinase Activity Assay), Assay Condition A (thiol containing conditions)
# Type: biochemical
# Procedure: Example 1—Assay Condition A (Thiol Containing Conditions)
# Objective: The IC50 profile of test compounds was determined using three protein kinases.
# Test compounds: The compounds were provided as pre-weighed powders in vials. The compounds were dissolved to 1×10^−02M by adding DMSO. 100 μl of each of the resulting stock solutions were transferred into column 2 of four 96 well “master plates”.
# Prior to testing, the 1×10^−02M stock solutions in column 2 of the master plates were subjected to a serial, semi-logarithmic dilution using 100% DMSO as a solvent. […] Column 1 and 7 were filled with 100% DMSO as controls. Subsequently, 2×10 μl from each well of the serial diluted copy plates were aliquoted with a 96 channel pipettor into two identical sets of “compound dilution plates”.
# In the process, 90 μl H2O were added to each well of a set of compound dilution plates. To minimize potential precipitation, the H2O was added to each plate only a few minutes before the transfer of the compound solutions into the assay plates. Each plate was shaken thoroughly, resulting in a “compound dilution plate/10% DMSO”.
# For the assays, 5 μl solution from each well of the compound dilution plates/10% DMSO were transferred into the assay plates. The final volume of the assay was 50 μl. All compounds were tested at 10 final assay concentrations in the range from 1×10^−04M to 3×10^−09M, in singlicate. The final DMSO concentration in the reaction cocktails was 1% in all cases.
# Recombinant protein kinases: All protein kinases were expressed in Sf9 insect cells or in E. coli as recombinant GST-fusion proteins or His-tagged proteins, either as full-length or enzymatically active fragments. All kinases were produced from human cDNAs and purified by either GSH-affinity chromatography or immobilized metal. Affinity tags were removed from a number of kinases during purification. The purity of the protein kinases was examined by SDS-PAGE/Coomassie staining, the identity was checked by mass spectroscopy.
# Protein kinase assay: A radiometric protein kinase assay (^33PanQinase® Activity Assay) was used for measuring the kinase activity of the three protein kinases. All kinase assays were performed in 96-well FlashPlates™ from PerkinElmer (Boston, Mass., USA) in a 50 μl reaction volume. The reaction cocktail was pipetted in four steps in the following order: • 20 μl of assay buffer (standard buffer) • 5 μl of ATP solution (in H2O) • 5 μl of test compound (in 10% DMSO) • 20 μl enzyme/substrate mix
# The following amounts of enzyme and substrate were used per well:
# The reaction cocktails were incubated at 30° C. for 60 minutes. The reaction was stopped with 50 μl of 2% (v/v) H3PO4, plates were aspirated and washed two times with 200 μl 0.9% (w/v) NaCl. Incorporation of ^33Pi was determined with a microplate scintillation counter (Microbeta, Wallac). All assays were performed with a BeckmanCoulter/SAGIAN™ Core System.
# Evaluation of raw data: The median value of the counts in column 1 (n=8) of each assay plate was defined as “low control”. This value reflects unspecific binding of radioactivity to the plate in the absence of a protein kinase but in the presence of the substrate. The median value of the counts in column 7 of each assay plate (n=8) was taken as the “high control”, i.e. full activity in the absence of any inhibitor. The difference between high and low control was taken as 100% activity.
# As part of the data evaluation the low control value from a particular plate was subtracted from the high control value as well as from all 80 “compound values” of the corresponding plate. The residual activity (in %) for each well of a particular plate was calculated by using the following formula: Res. Activity (%)=100×[(cpm of compound−low control)/(high control−low control)]
# The residual activities for each concentration and the compound IC50 values were calculated using Quattro Workflow V3.1.1 (Quattro Research GmbH, Munich, Germany).
# [1] = thiol containing conditions (1.2 mM DTT), ATP 0.3 μM, read-out: CDK12 IC50 Condition A
# Sequence of CDK12 wt/CycK (Q9NYV4 whole entry): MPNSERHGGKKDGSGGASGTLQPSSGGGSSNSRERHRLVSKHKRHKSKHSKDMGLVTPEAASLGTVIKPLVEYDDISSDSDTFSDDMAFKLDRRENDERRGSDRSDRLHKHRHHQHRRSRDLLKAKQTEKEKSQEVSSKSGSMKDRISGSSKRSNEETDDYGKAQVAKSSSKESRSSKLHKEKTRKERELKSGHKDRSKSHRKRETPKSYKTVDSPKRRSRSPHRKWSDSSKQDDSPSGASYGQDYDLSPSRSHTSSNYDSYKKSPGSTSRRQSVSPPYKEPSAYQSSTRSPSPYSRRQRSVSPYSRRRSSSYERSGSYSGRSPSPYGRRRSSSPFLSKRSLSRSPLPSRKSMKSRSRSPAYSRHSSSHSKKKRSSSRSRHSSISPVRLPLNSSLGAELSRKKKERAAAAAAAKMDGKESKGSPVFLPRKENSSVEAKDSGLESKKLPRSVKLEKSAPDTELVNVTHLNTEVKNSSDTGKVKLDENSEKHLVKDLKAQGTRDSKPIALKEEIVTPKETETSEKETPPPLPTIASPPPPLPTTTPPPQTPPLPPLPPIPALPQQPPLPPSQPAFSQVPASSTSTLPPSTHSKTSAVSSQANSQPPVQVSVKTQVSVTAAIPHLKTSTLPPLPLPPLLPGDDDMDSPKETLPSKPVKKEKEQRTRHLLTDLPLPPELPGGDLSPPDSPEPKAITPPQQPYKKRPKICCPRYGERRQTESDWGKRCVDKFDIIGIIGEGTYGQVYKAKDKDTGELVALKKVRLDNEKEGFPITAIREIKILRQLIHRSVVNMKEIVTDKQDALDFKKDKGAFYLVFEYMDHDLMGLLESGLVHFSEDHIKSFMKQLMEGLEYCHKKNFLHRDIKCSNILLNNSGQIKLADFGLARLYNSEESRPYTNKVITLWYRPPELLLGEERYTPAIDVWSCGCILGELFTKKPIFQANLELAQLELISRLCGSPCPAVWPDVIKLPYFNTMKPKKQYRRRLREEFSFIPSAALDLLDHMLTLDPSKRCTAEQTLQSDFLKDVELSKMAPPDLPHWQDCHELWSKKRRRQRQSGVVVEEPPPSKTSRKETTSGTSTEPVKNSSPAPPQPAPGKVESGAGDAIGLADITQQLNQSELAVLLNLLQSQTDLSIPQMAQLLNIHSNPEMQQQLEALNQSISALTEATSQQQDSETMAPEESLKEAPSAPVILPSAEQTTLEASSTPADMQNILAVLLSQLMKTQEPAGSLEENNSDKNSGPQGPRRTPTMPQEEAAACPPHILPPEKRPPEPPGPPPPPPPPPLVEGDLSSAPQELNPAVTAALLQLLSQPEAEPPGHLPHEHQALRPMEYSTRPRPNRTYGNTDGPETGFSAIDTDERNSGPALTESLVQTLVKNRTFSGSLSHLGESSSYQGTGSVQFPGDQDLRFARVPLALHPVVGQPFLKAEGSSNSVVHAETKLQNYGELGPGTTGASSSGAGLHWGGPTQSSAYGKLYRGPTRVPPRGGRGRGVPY
# Sequence of CDK12 wt/CycK (O75909 whole entry partner): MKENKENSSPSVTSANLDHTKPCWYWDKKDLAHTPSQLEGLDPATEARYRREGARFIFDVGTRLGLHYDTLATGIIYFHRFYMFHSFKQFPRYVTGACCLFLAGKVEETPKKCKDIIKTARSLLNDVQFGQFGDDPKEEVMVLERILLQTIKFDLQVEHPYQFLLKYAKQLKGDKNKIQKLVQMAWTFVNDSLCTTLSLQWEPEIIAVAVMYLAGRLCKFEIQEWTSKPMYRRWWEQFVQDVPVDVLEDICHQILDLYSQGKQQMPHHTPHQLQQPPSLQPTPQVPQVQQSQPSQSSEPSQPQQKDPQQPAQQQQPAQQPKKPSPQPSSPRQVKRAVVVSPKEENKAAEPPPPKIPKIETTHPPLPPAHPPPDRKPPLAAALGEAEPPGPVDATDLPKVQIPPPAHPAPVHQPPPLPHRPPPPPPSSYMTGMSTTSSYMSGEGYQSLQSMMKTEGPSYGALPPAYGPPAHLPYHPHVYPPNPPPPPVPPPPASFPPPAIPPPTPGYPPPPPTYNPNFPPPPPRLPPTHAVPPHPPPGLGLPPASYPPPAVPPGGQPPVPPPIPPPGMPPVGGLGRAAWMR
SMILES,IC50 [1] [nM],IC50 [nM]
"C=CC(=O)N(C)c1ccc(C(=O)N2CC[C@@H](Nc3ncc(C#N)cn3)C2)cc1 [Example 70, (R)—N-(4-(3-((5-cyanopyrimidin-2-yl)amino)pyrrolidine-1-carbonyl)phenyl)-N-methylacrylamide]",100 to 1000,
"C=CC(=O)N(C)c1ccc(C(=O)N2CC[C@@H](Nc3ncc(Cl)c(OC)n3)C2)nc1 [Example 77, (R)—N-(6-(3-((5-chloro-4-methoxypyrimidin-2-yl)amino)pyrrolidine-1-carbonyl)pyridin-3-yl)-N-methylacrylamide]",100 to 1000,
"C=CC(=O)Nc1ccc(C(=O)N2CC[C@@H](Nc3ncc(Cl)c(N4CCC4)n3)C2)cc1 [Example 89, (R)—N-(4-(3-((4-(azetidin-1-yl)-5-chloropyrimidin-2-yl)amino)pyrrolidine-1-carbonyl)phenyl)acrylamide]",100 to 1000,
"C=CC(=O)Nc1nc(C(=O)N2CC[C@@H](Nc3ncc(Cl)cn3)C2)cs1 [Example 94, (R)—N-(4-(3-((5-chloropyrimidin-2-yl)amino)pyrrolidine-1-carbonyl)thiazol-2-yl)acrylamide]",100 to 1000,
"CN(C)C/C=C/C(=O)Nc1ccc(C(=O)N2CC[C@@H](Nc3ncc(Cl)cn3)C2)cc1 [Example 98, (R,E)-N-(4-(3-((5-chloropyrimidin-2-yl)amino)pyrrolidine-1-carbonyl)phenyl)-4-(dimethylamino)but-2-enamide]",1000 to 10000,
"C=CC(=O)Nc1nc(C(=O)N2CC[C@@H](Nc3ncc(C(F)(F)F)cn3)C2)cs1 [Example 100, (R)—N-(4-(3-((5-(trifluoromethyl)pyrimidin-2-yl)amino)pyrrolidine-1-carbonyl)thiazol-2-yl)acrylamide]",100 to 1000,
"C=CC(=O)Nc1nc(C(=O)N2CCC[C@@H](Nc3ncc(Cl)c(OC)n3)C2)cs1 [Example 101, (R)—N-(4-(3-((5-chloro-4-methoxypyrimidin-2-yl)amino)piperidine-1-carbonyl)thiazol-2-yl)acrylamide]",100 to 1000,
"C=CC(=O)Nc1ccc(C(=O)N2CC[C@@H](Nc3ncc(Cl)cn3)C2)cc1OC1CCOC1 (stereo partly drawn) [Example 103, N-(4-((R)-3-((5-chloropyrimidin-2-yl)amino)pyrrolidine-1-carbonyl)-2-((tetrahydrofuran-3-yl)oxy)phenyl)acrylamide]",100 to 1000,
"C=CC(=O)N(C)c1ccc(C(=O)N2CC[C@@H](Nc3ncc(Br)cn3)C2)cc1 [Example 104, (R)—N-(4-(3-((5-bromopyrimidin-2-yl)amino)pyrrolidine-1-carbonyl)phenyl)-N-methylacrylamide]",< 100,
"C=CC(=O)Nc1cccc(C(=O)N2CC[C@@H](Nc3ncc(Cl)c(OC)n3)C2)c1 [Example 105, (R)—N-(3-(3-((5-chloro-4-methoxypyrimidin-2-yl)amino)pyrrolidine-1-carbonyl)phenyl)acrylamide]",100 to 1000,
"C=CC(=O)Nc1cccc(C(=O)N2CCC[C@@H](Nc3ncc(Cl)c(OC)n3)C2)c1 [Example 106, (R)—N-(3-(3-((5-chloro-4-methoxypyrimidin-2-yl)amino)piperidine-1-carbonyl)phenyl)acrylamide]",10000 to 30000,
"C=CC(=O)Nc1ccc(C(=O)N2CC[C@@H](Nc3ncc(CC(C)C)cn3)C2)cc1 [Example 107, (R)—N-(4-(3-((5-isobutylpyrimidin-2-yl)amino)pyrrolidine-1-carbonyl)phenyl)acrylamide]",1000 to 10000,
"C=CC(=O)Nc1ccc(C(=O)N2CC[C@](C)(Nc3ncc(Cl)cn3)C2)cc1 [Example 108, (S)—N-(4-(3-((5-chloropyrimidin-2-yl)amino)-3-methylpyrrolidine-1-carbonyl)phenyl)acrylamide]",30000 to 100000,
"C=CC(=O)Nc1ccc(C(=O)N2CC[C@@](C)(Nc3ncc(Cl)cn3)C2)cc1 [Example 109, (R)—N-(4-(3-((5-chloropyrimidin-2-yl)amino)-3-methylpyrrolidine-1-carbonyl)phenyl)acrylamide]",,10000 to 30000
"C=CC(=O)Nc1cc(C(=O)N2CC[C@@H](Nc3ncc(Cl)cn3)C2)nn1C [Example 110, (R)—N-(3-(3-((5-chloropyrimidin-2-yl)amino)pyrrolidine-1-carbonyl)-1-methyl-1H-pyrazol-5-yl)acrylamide]",1000 to 10000,
"[2H]c1nc(N[C@@H]2CCN(C(=O)c3ccc(NC(=O)C=C)cc3)C2)nc(NC)c1Cl [Example 111, (R)—N-(4-(3-((5-chloro-4-deutero-6-(methylamino)pyrimidin-2-yl)amino)pyrrolidine-1-carbonyl)phenyl)acrylamide]",< 100,

# Further lines, with some results ahead:
IC50 [1] [nM],SMILES,IC50 [nM]
100 to 1000,"C=CC(=O)Nc1ccc(C(=O)N2CC[C@@H](Nc3ncc(Cl)cn3)C2)cc1 [Example 87, (R)—N-(4-(3-((5-chloropyrimidin-2-yl)amino)pyrrolidine-1-carbonyl)phenyl)acrylamide]",
< 100,"C=CC(=O)Nc1ccc(C(=O)N2CC[C@@H](Nc3ncc(Cl)c(OCCOC)n3)C2)cc1 [Example 88, (R)—N-(4-(3-((5-chloro-4-(2-methoxyethoxy)pyrimidin-2-yl)amino)pyrrolidine-1-carbonyl)phenyl)acrylamide]",
< 100,"C=CC(=O)Nc1ccc(C(=O)N2CC[C@@H](Nc3ncc(Cl)c(N)n3)C2)cc1 [Example 90, (R)—N-(4-(3-((4-amino-5-chloropyrimidin-2-yl)amino)pyrrolidine-1-carbonyl)phenyl)acrylamide]",
< 100,"C=CC(=O)Nc1ccc(C(=O)N2CC[C@@H](Nc3ncc(C(F)(F)F)c(N)n3)C2)cc1 [Example 91, (R)—N-(4-(3-((4-amino-5-(trifluoromethyl)pyrimidin-2-yl)amino)pyrrolidine-1-carbonyl)phenyl)acrylamide]",
< 100,"C=CC(=O)Nc1ccc(C(=O)N2CC[C@@H](Nc3ncc(Cl)c(C(F)(F)F)n3)C2)cc1 [Example 92, (R)—N-(4-(3-((5-chloro-4-(trifluoromethyl)pyrimidin-2-yl)amino)pyrrolidine-1-carbonyl)phenyl)acrylamide]",
< 100,"[2H]C([2H])([2H])Oc1nc(N[C@@H]2CCN(C(=O)c3ccc(NC(=O)C=C)cc3)C2)ncc1Cl [Example 93, (R)—N-(4-(3-((5-chloro-4-(trideuteromethoxy)pyrimidin-2-yl)amino)pyrrolidine-1-carbonyl)phenyl)acrylamide]",
< 100,"C=CC(=O)Nc1ccc(C(=O)N2CC[C@@H](Nc3ncc(Cl)c(Oc4ccccc4)n3)C2)cc1 [Example 95, (R)—N-(4-(3-((5-chloro-4-phenoxypyrimidin-2-yl)amino)pyrrolidine-1-carbonyl)phenyl)acrylamide]",
< 100,"C=CC(=O)Nc1ccc(C(=O)N2CC[C@@H](Nc3ncc(Cl)c(OCC)n3)C2)cc1 [Example 96, (R)—N-(4-(3-((5-chloro-4-ethoxypyrimidin-2-yl)amino)pyrrolidine-1-carbonyl)phenyl)acrylamide]",
30000 to 100000,"C=CC(=O)Nc1ccc(C(=O)N2CC[C@@H](Nc3ncc(Cl)c(O)n3)C2)cc1 [Example 97, (R)—N-(4-(3-((5-chloro-4-hydroxypyrimidin-2-yl)amino)pyrrolidine-1-carbonyl)phenyl)acrylamide]",
100 to 1000,"C=CC(=O)Nc1ccc(C(=O)N2CC[C@@H](Nc3ncc(C4CC4)c(OC)n3)C2)cc1 [Example 99, (R)—N-(4-(3-((5-cyclopropyl-4-methoxypyrimidin-2-yl)amino)pyrrolidine-1-carbonyl)phenyl)acrylamide]",
< 100,"C=CC(=O)Nc1ccc(C(=O)N2CC[C@@H](Nc3ncc(Cl)c(OCCC#N)n3)C2)cc1 [Example 102, (R)—N-(4-(3-((5-chloro-4-(2-cyanoethoxy)pyrimidin-2-yl)amino)pyrrolidine-1-carbonyl)phenyl)acrylamide]",
